US10556879B2, “Retinoid compound, preparation method therefor, intermediates thereof and application thereof” (SHANGHAI INSTITUTE OF ORGANIC CHEMISTRY, CHINESE ACADEMY OF …, priority 2016, dated 2020)

These compounds were tested on subcutaneous implantation tumor of B16-F1 melanoma (assay: Subcutaneous implantation model of B16-F1 melanoma in immunocompetent mice). Details: mouse, in vivo.
Format: in vivo, mice (C57BL/6)
Experimental: A subcutaneous implantation model of B16-F1 melanoma in immunocompetent mice (C57BL/6, female, 6-8 weeks) was established to study the inhibitory activity of compound WYC-103 on the tumor in situ. Firstly, B16-F1 cells were incubated within 3D fibrin gel (90-Pa in gel stiffness) that was immersed in culture medium for 5 days, and the desired tumor-repopulating cells were screened. Subsequently, the culture medium was respectively treated with collagenase and neutral protease II, and the tumor-repopulating cells of B16-F1 melanoma were released, then the obtained repopulating cells were transferred to a freshly prepared medium to be re-suspended and maintained at single-cell state.
Six immunocompetent mice were randomly divided into two groups which were respectively the treatment group and the DMSO negative control group. Mice were subcutaneously injected with 30,000 tumor-repopulating cells of melanoma to establish a subcutaneous implantation model of melanoma. Subsequently, Mice were administered via tail vein injection based on the body weight and the blood volume of the mice. From day 0, mice in the treatment group were administrated with WYC-103 once every 2 days at a blood concentration of 10 μM and fed normally, observing the survival of the mice. […] According to the statistical analysis, the tumor volume in the treatment group was only 50% of the control group (FIG. 12).
This experiment was repeated in order to further confirm the inhibitory activity of WYC-103 on subcutaneous implantation tumor of B16-F1 melanoma. In the present experiment, 18 immunocompetent mice (C57BL/6, female, 6-8 weeks) were randomly divided into three groups which were respectively the treatment group, the positive control group (BMS-453 was used as the positive drug) and the DMSO negative control group. Subsequently, Mice were administered via tail vein injection based on the body weight and the blood volume of the mice. From day 0, mice in the treatment group were administrated with WYC-103 once every 2 days at a blood concentration of 10 μM; mice in the positive control group were administered with BMS-453 (WYC-114) as the positive drug in the same route of administration; mice in the negative control group was administered with 0.1% DMSO in a same route of administration.
With `CC1(C)CC=C(c2ccccc2)c2cc(/C=C/c3ccc(C(=O)O)cc3)ccc21` [BMS-453, reference compound] the “body weight of the mice” value was “significantly reduced”, the “dissection of peritoneal/abdominal cavity” value was “a large number of abnormal foamy structure appeared in the peritoneal cavity” and the toxic side effects was “a greater toxic side effect”.

Same assay, conditions: repeated experiment, on the 20th day
`CC1(C)CC=C(c2ccccc2)c2cc(/C=C/c3ccc(C(=O)O)cc3)ccc21` [BMS-453, reference compound] was tested, and the mice died was “all the mice in the positive control group died”.

These compounds were tested on tumor-repopulating cells of B16-F1 melanoma (assay: Inhibitory activity on proliferation of tumor-repopulating cells (TRCs) of B16-F1 melanoma in 3D fibrin gel). Details: Mus musculus, B16-F1, 120 h; 10 μM, incubated 5 days, colony tumor size; read-out: Inhibition rate on TRCs of B16-F1 melanoma at a concentration of 10 μM (%).
Format: cell-based
Experimental: B16-F1 Melanoma cells were incubated with 3D fibrin gel medium (90-Pa) for 5 days, and the desired tumor-repopulating cells of melanoma were screened (Nat. Mater. 2012, 11, 734). Subsequently, the culture medium was respectively treated with collagenase and neutral protease II, and the tumor-repopulating cells of B16-F1 melanoma were released, then the obtained repopulating cells were transferred to a freshly prepared medium to be resuspended and maintained at single-cell state. The tumor-repopulating cells of B16-F1 melanoma were inoculated in 3D fibrin gel medium (90-Pa) for 5 days, with 0.1% DMSO as the negative control group, Tazarotene and Bexarotene as the positive control drugs respectively, […] for 5 days. The colony tumor size was measured and calculated, and the inhibition rate of each drug on the tumor-repopulating cells of B16-F1 melanoma was calculated. The results of inhibitory activity of the compound of the present invention on the proliferation of tumor-repopulating cells of B16-F1 melanoma were shown in Table 2 below.
For `CCOC(=O)c1ccc(C#Cc2ccc3c(c2)C(C)(C)CCS3)c([N+](=O)[O-])c1` [WYC-308, ethyl 3-nitro-4-((4,4-dimethylthiochroman-6-yl)ethynyl)benzoate], the inhibition at 10 µM was 71.9%. `CC1(C)CCSc2ccc(C#Cc3ccc(C(=O)O)cc3[N+](=O)[O-])cc21` [WYC-309, 3-nitro-4-((4,4-dimethylthiochroman-6-yl)ethynyl)benzoic Acid] was tested, and the inhibition at 10 µM was 56.8%. `CC1(C)CCSc2ccc(C#Cc3ccc(C(=O)O)cc3F)cc21` [WYC-310, 3-fluoro-4((4,4-dimethylthiochroman-6-yl)ethynyl)benzoic Acid] gave an inhibition at 10 µM of 76.8%. For `CCOC(=O)c1ccc(C#Cc2ccc3c(c2)C(C)(C)CC[S+]3[O-])c([N+](=O)[O-])c1` (stereo not drawn) [WYC-311, ethyl 3-nitro-4-((4,4-dimethyl-1-oxothiochroman-6-yl)ethynyl)benzoate], the inhibition at 10 µM was 80.2%. In the case of `CCOC(=O)c1ccc(C#Cc2ccc3c(c2)C(C)(C)CC[S+]3[O-])c(F)c1` (stereo not drawn) [WYC-312, ethyl 3-fluoro-4-((4,4-dimethyl-1-oxothiochroman-6-yl)ethynyl)benzoate], the inhibition at 10 µM is reported as 71%. Compound `CCOC(=O)c1ccc(C#Cc2ccc3c(c2)C(C)(C)CCS3)c(F)c1F` [WYC-313, ethyl 2,3-difluoro-4((4,4-dimethylthiochroman-6-yl)ethynyl)benzoate] has an inhibition at 10 µM of 62.2%. For `CC1(C)CCSc2ccc(C#Cc3ccc(C(=O)O)c(F)c3F)cc21` [WYC-314, 2,3-difluoro-4((4,4-dimethylthiochroman-6-yl)ethynyl)benzoic Acid], the inhibition at 10 µM was 70.1%. For `CCOC(=O)c1ccc(C#Cc2ccc3c(c2)C(C)(C)CC[S+]3[O-])c(F)c1F` (stereo not drawn) [WYC-315, ethyl 2,3-difluoro-4-((4,4-dimethyl-1-oxothiochroman-6-yl)ethynyl)benzoate], the inhibition at 10 µM was 70.1%. With `COC(=O)c1ccc(C#Cc2ccc3c(c2)C(C)(C)CCS3)c(NC(C)=O)c1` [WYC-316, methyl 3-acetamido-4-((4,4-dimethylthiochroman-6-yl)ethynyl)benzoate] the inhibition at 10 µM was 76.2%. Compound `CCOC(=O)c1ccc(C#Cc2ccc3c(c2)C(C)(C)CCS3)c(NC(C)=O)c1` [WYC-317, ethyl 3-acetamido-4-((4,4-dimethylthiochroman-6-yl)ethynyl)benzoate] has an inhibition at 10 µM of 86.4%. In the case of `CCOC(=O)c1ccc(C#Cc2ccc3c(c2)C(C)(C)CC[S+]3[O-])c(NC(C)=O)c1` (stereo not drawn) [WYC-318, ethyl 3-acetamido-4-((4,4-dimethyl-1-oxothiochroman-6-yl)ethynyl)benzoate], the inhibition at 10 µM is reported as 60%. For `CC(=O)Nc1cc(C(=O)O)ccc1C#Cc1ccc2c(c1)C(C)(C)CCS2` [WYC-319, 3-acetamido-4-((4,4-dimethylthiochroman-6-yl)ethynyl)benzoic Acid], the inhibition at 10 µM was 65.8%. Work on `CCOC(=O)c1cnc(C#Cc2ccc3c(c2)C(C)(C)CCS3(=O)=O)nc1` [WYC-320, ethyl 2-((4,4-dimethyl-1,1-dioxothiochroman-6-yl)ethynyl)pyrimidin-5-carboxylate] yielded an inhibition at 10 µM of 92.6%. `COC(=O)c1ccc(C#Cc2ccc3c(c2)C(C)(C)CC[S+]3[O-])c(NC(C)=O)c1` (stereo not drawn) [WYC-321, methyl 3-acetamido-4-((4,4-dimethyl-1-oxothiochroman-6-yl)ethynyl)benzoate] gave an inhibition at 10 µM of 78.2%. For `CCOC(=O)c1cnc(C#Cc2ccc3c(c2)C(C)(C)CCS3)cn1` [WYC-322, ethyl 5-((4,4-dimethylthiochroman-6-yl)ethynyl)pyrazin-2-carboxylate], the inhibition at 10 µM was 78.8%. `CC1(C)CCSc2ccc(C#Cc3cnc(C(=O)O)cn3)cc21` [WYC-323, 5-((4,4-dimethylthiochroman-6-yl)ethynyl)pyrazin-2-carboxylic Acid] showed an inhibition at 10 µM of 76%. Compound `CCOC(=O)c1cnc(C#Cc2ccc3c(c2)C(C)(C)CC[S+]3[O-])cn1` (stereo not drawn) [WYC-324, ethyl 5-((4,4-dimethyl-1-oxothiochroman-6-yl)ethynyl)pyrazin-2-carboxylate] has an inhibition at 10 µM of 85.1%. In the case of `CCOC(=O)c1ccc(C#Cc2ccc3c(c2)C(C)(C)CCS3)cc1Cl` [WYC-325, ethyl 2-chloro-4-((4,4-dimethylthiochroman-6-yl)ethynyl)benzoate], the inhibition at 10 µM is reported as 74.2%. Work on `CCOC(=O)c1ccc(C#Cc2ccc3c(c2)C(C)(C)CC[S+]3[O-])cc1Cl` (stereo not drawn) [WYC-326, ethyl 2-chloro-4-((4,4-dimethyl-1-oxothiochroman-6-yl)ethynyl)benzoate] yielded an inhibition at 10 µM of 73.4%. With `CC1(C)CCSc2ccc(C#Cc3ccc(C(=O)O)c(Cl)c3)cc21` [WYC-327, 2-chloro-4-((4,4-dimethylthiochroman-6-yl)ethynyl)benzoic Acid] the inhibition at 10 µM was 75.7%. For `CC1(C)CCC(C)(C)c2cc(C#Cc3cnc(C#N)nc3)ccc21` [WYC-329, 2-cyano-5-((5,5,8,8-tetramethyl-5,6,7,8-tetrahydronaphth-2-yl)ethynyl)pyrimidine], the inhibition at 10 µM was 94.5%. `CC1(C)CCC(C)(C)c2cc(C#Cc3ccc(C(=O)O)c(N)c3)ccc21` [WYC-330, 2-amino-4-((5,5,8,8-tetramethyl-5,6,7,8-tetrahydronaphth-2-yl)ethynyl)benzoic Acid] was tested, and the inhibition at 10 µM was 79%. Compound `COC(=O)c1ccc(C#Cc2ccc3c(c2)C(C)(C)CCC3(C)C)c(O)c1` [WYC-332, methyl 3-hydroxy-4-((5,5,8,8-tetramethyl-5,6,7,8-tetrahydronaphth-2-yl)ethynyl)benzoate] has an inhibition at 10 µM of 55.9%. `CC1(C)CCC(C)(C)c2cc(C#Cc3ccc(C#N)cn3)ccc21` [WYC-333, 2-((5,5,8,8-tetramethyl-5,6,7,8-tetrahydronaphth-2-yl)ethynyl)-5-cyanopyridine] showed an inhibition at 10 µM of 69.1%. For `CCOC(=O)c1ncc(C#Cc2ccc3c(c2)C(C)(C)CCC3(C)C)cn1` [WYC-334, ethyl 5-((5,5,8,8-tetramethyl-5,6,7,8-tetrahydronaphth-2-yl)ethynyl)pyrimidin-2-carboxylate], the inhibition at 10 µM was 80.6%. With `CC1(C)CCC(C)(C)c2cc(C#Cc3ccc(C(=O)O)c(O)c3)ccc21` [WYC-335, 2-hydroxy-4-((5,5,8,8-tetramethyl-5,6,7,8-tetrahydronaphth-2-yl)ethynyl)benzoic Acid] the inhibition at 10 µM was 86.9%. `CC(=O)Nc1cc(C#Cc2ccc3c(c2)C(C)(C)CCC3(C)C)ccc1C(=O)O` [WYC-336, 2-acetyl amino-4-((5,5,8,8-tetramethyl-5,6,7,8-tetrahydronaphth-2-yl)ethynyl)benzoic Acid] gave an inhibition at 10 µM of 86.7%. `CC1(C)CCC(C)(C)c2cc(C#Cc3ccc(C(=O)O)nc3)ccc21` [WYC-337, 5-((5,5,8,8-tetramethyl-5,6,7,8-tetrahydronaphth-2-yl)ethynyl)pyridin-2-carboxylic Acid] gave an inhibition at 10 µM of 87.5%. Compound `COC(=O)c1ncc(C#Cc2ccc3c(c2)C(C)(C)CCC3(C)C)cn1` [WYC-338, methyl 5-((5,5,8,8-tetramethyl-5,6,7,8-tetrahydronaphth-2-yl)ethynyl)pyrimidin-2-carboxylate] has an inhibition at 10 µM of 69%. In the case of `CCOC(=O)c1ccc(C#Cc2ccc3c(c2)C(C)(C)CCC3(C)C)cn1` [WYC-341, ethyl 5-((5,5,8,8-tetramethyl-5,6,7,8-tetrahydronaphth-2-yl)ethynyl)pyridin-2-carboxylate], the inhibition at 10 µM is reported as 87%. With `CCOC(=O)c1cnc(C#Cc2ccc3c(c2)C(C)(C)CCC3(C)C)cn1` [WYC-342, ethyl 5-((5,5,8,8-tetramethyl-5,6,7,8-tetrahydronaphth-2-yl)ethynyl)pyrazin-2-carboxylate] the inhibition at 10 µM was 77.6%.

Same assay, conditions: Mus musculus, B16-F1, dose-response curve, colony tumor volume; read-out: IC50 of inhibition on TRCs of B16-F1 melanoma/μM
In the case of `CCOC(=O)c1cnc(C#Cc2ccc3c(c2)C(C)(C)CCS3(=O)=O)nc1` [WYC-320, ethyl 2-((4,4-dimethyl-1,1-dioxothiochroman-6-yl)ethynyl)pyrimidin-5-carboxylate], the IC50 is reported as 1.65 µM. Compound `CC1(C)CCC(C)(C)c2cc(C#Cc3cnc(C#N)nc3)ccc21` [WYC-329, 2-cyano-5-((5,5,8,8-tetramethyl-5,6,7,8-tetrahydronaphth-2-yl)ethynyl)pyrimidine] has an IC50 of 0.5 µM.

Same assay, conditions: Mus musculus, B16-F1; 10 μM (Table 3); read-out: Inhibition rate on TRCs of B16-F1 melanoma at a concentration of 10 μM/%
Compound `CCOC(=O)c1cnc(C#Cc2ccc3c(c2)C(C)(C)CCS3(=O)=O)nc1` [WYC-320, ethyl 2-((4,4-dimethyl-1,1-dioxothiochroman-6-yl)ethynyl)pyrimidin-5-carboxylate] has an inhibition at 10 µM of 92.6%. `CC1(C)CCC(C)(C)c2cc(C#Cc3cnc(C#N)nc3)ccc21` [WYC-329, 2-cyano-5-((5,5,8,8-tetramethyl-5,6,7,8-tetrahydronaphth-2-yl)ethynyl)pyrimidine] gave an inhibition at 10 µM of 94.5%.
